From article PMC8643097 (British journal of pharmacology, 2021)

Assays:
Nav1.8 = Nav1.8 (Homo sapiens, UniProt Q9Y5Y9); type: cell-based; settings: CHO-K1, read-out: % inhibition at 300 μM
Nav1.7 = Nav1.7 (Homo sapiens, UniProt Q15858); type: cell-based
Chain of Nav1.7 (Q15858 whole entry): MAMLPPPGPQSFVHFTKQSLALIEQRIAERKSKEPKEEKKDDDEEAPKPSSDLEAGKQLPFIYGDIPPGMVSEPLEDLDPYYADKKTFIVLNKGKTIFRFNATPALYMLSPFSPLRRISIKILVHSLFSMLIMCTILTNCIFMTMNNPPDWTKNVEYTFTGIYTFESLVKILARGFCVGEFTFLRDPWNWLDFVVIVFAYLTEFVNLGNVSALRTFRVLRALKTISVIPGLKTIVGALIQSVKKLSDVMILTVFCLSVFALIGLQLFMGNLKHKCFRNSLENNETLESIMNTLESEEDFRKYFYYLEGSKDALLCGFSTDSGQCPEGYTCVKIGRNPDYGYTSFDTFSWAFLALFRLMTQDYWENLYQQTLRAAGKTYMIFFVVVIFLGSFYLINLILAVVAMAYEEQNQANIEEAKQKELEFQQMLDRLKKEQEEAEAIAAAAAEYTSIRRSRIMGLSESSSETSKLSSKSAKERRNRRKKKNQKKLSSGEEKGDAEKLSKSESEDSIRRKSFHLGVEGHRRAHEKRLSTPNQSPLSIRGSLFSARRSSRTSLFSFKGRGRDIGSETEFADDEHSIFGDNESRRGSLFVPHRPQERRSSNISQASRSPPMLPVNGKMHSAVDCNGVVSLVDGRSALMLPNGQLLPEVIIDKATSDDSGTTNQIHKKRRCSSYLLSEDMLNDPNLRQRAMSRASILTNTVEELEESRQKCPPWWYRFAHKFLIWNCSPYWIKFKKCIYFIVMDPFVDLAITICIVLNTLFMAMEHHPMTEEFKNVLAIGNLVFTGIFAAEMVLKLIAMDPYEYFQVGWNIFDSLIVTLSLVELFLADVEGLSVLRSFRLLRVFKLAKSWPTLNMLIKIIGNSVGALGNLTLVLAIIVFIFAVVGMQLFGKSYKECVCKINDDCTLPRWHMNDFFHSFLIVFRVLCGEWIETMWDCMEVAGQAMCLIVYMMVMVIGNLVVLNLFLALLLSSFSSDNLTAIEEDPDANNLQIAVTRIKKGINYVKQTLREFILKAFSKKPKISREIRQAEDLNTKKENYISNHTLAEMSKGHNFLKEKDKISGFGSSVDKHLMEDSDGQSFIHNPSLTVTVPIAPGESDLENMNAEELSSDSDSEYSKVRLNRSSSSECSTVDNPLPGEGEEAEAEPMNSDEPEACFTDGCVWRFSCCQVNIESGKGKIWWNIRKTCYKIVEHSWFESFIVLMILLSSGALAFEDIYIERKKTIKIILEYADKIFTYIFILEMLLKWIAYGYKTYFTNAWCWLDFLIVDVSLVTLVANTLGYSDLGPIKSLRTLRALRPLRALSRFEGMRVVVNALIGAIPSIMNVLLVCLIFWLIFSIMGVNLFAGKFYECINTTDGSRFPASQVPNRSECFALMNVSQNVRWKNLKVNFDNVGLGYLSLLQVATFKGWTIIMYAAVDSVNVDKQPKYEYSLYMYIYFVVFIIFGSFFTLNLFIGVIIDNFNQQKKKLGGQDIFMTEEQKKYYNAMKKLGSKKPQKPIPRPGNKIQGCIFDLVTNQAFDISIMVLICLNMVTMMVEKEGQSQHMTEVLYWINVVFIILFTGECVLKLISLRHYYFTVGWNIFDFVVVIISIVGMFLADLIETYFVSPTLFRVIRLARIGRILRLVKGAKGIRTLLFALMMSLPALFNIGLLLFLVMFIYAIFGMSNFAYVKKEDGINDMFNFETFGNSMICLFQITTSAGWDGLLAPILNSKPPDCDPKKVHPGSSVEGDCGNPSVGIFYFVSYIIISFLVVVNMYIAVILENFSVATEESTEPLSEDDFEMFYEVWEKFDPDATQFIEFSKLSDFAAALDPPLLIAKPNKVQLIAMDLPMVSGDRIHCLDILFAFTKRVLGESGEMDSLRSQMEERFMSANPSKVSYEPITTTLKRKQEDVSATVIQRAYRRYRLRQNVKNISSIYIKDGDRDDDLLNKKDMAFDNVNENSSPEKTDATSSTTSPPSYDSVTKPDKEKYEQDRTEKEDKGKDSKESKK

Chain of Nav1.8 (Q9Y5Y9 whole entry): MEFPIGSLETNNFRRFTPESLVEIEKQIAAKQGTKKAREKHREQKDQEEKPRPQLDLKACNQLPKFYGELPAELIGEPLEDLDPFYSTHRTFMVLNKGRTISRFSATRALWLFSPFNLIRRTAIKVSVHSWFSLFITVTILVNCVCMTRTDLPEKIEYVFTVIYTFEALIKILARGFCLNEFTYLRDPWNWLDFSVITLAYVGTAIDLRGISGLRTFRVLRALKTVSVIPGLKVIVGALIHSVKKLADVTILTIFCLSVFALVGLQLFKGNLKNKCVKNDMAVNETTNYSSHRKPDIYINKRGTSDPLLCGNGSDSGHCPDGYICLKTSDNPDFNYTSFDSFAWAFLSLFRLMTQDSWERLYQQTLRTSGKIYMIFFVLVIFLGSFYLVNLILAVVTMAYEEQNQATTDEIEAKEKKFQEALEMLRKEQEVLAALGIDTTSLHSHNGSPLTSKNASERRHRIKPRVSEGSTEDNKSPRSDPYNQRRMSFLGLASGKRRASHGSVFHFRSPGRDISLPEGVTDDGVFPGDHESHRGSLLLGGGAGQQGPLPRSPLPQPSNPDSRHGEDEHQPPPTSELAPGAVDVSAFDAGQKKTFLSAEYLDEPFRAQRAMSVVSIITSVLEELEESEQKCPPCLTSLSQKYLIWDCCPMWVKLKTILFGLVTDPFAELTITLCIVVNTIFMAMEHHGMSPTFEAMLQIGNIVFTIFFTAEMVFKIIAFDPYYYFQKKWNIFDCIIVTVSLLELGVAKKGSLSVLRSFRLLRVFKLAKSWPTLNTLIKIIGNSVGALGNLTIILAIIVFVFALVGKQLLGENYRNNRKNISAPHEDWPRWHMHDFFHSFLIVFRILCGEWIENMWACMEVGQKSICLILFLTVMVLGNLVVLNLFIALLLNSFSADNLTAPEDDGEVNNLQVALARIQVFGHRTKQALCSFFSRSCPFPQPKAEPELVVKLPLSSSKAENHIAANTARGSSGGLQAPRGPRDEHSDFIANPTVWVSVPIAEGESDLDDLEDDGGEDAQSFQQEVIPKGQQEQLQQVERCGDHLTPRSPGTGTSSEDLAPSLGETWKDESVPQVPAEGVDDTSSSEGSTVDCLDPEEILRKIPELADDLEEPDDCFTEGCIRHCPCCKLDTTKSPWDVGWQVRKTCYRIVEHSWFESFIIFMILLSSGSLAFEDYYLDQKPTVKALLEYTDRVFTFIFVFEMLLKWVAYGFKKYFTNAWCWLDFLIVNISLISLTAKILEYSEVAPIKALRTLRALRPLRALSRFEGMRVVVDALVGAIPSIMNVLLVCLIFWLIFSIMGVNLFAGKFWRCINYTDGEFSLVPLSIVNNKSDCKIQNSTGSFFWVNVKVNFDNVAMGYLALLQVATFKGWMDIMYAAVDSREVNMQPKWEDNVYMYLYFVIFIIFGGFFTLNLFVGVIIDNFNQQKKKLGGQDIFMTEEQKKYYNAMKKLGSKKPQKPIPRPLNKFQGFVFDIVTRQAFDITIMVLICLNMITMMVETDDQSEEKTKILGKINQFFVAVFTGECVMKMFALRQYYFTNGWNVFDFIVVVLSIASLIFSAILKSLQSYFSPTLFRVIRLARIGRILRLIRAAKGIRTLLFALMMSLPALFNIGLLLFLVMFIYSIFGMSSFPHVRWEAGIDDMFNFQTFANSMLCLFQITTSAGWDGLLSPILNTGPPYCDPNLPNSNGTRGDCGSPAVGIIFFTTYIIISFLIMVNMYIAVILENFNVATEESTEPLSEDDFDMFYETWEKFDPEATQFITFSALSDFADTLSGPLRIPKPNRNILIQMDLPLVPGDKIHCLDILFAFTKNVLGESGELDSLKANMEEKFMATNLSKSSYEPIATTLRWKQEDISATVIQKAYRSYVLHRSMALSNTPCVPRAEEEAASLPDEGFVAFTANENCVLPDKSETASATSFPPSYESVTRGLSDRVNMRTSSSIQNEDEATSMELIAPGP
Chain of Nav1.8 (Q9NY72 23-215 partner): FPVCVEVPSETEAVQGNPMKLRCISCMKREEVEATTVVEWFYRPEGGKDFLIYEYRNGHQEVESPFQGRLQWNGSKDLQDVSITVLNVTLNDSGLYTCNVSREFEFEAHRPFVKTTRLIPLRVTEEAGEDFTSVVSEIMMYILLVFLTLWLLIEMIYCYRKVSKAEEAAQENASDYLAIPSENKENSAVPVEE

Structure (SMILES)	inhibition at 300 µM (Nav1.8) [%]	IC50 (Nav1.7) [µM]
CCC(C(=O)Nc1c(C)cccc1C)[N+]1(CC)CCCCC1 (stereo not drawn) [BW-031, 1-(1-(2,6-dimethylphenylamino)-1-oxobutan-2-yl)-1-ethylpiperidinium]	30 ± 18	9.5
CC[N+](CC)(CC)CC(=O)Nc1c(C)cccc1C [QX-314]		66
